Reference: ChEMBL document CHEMBL1157748, “4-hydroxy-1,2,5-oxadiazol-3-yl moiety as bioisoster of the carboxy function. Synthesis, ionization constants, and molecular pharmacological characterization at ionotropic glutamate receptors of compounds related to glutamate and its homologues” (J Med Chem, 2010)
Activity calls are given as the source filed them. No cut-off for these calls is given here.

How the values were obtained:
[1] = Displacement of [3H]AMPA from AMPA receptor in Sprague-Dawley rat brain membranes; assay type: cell membranes, Membrane
Glutamate NMDA receptor [2] = experiment: Displacement of [3H]CGP39653 from NMDA receptor in Sprague-Dawley rat brain membranes; assay type: cell membranes, Membrane
Glutamate receptor 2 [3] = target: Glutamate receptor 2 (Rattus norvegicus, UniProt P19491); experiment: Displacement of [3H]AMPA from rat iGluR2 receptor expressed in Sf9 cells baculovirus system after 1 to 2 hrs by liquid scintillation counting
[4] = target: Glutamate receptor ionotropic, kainate 2 (Rattus norvegicus, UniProt P42260); experiment: Displacement of [3H]SYM2081 from rat iGluR6 receptor expressed in Sf9 cells baculovirus system after 1 to 2 hrs by liquid scintillation counting
[5] = target: Glutamate receptor ionotropic, kainate 3 (Rattus norvegicus, UniProt P42264); experiment: Displacement of [3H]SYM2081 from rat iGluR7 receptor expressed in Sf9 cells baculovirus system after 1 to 2 hrs by liquid scintillation counting
Glutamate receptor 2 [6] = target: Glutamate receptor 2 (Homo sapiens, UniProt P42262); experiment: Activity at recombinant iGluR2 receptor expressed in Xenopus laevis oocytes using holding potential of -15 to -20 mV by TEVC electrophysiology; assay type: cell-based, Oocyte
[7] = target: T1, Glutamate NMDA receptor; Grin1/Grin2a (Rattus norvegicus, UniProt P35439+Q00959); experiment: Agonist activity at rat NR1/NR2A receptor expressed in BHK21 cells assessed as change in intracellular calcium levels at 1000 uM by FLIPR assay; assay type: functional, cell-based; conditions: bhk-21
[8] = target: T1, Glutamate NMDA receptor; Grin1/Grin2a; experiment: Antagonist activity at rat NR1/NR2A receptor expressed in BHK21 cells assessed as inhibition of (S)-Glu-induced intracellular calcium levels by FLIPR assay; assay type: functional, cell-based, BHK-21
[9] = target: Glutamate receptor ionotropic, kainate 1 (Rattus norvegicus, UniProt P22756); experiment: biochemical
Description: Displacement of [3H]SYM2081 from rat iGluR5 receptor expressed in Sf9 cells baculovirus system after 1 to 2 hrs by liquid scintillation counting

[10] = target: T1, Glutamate NMDA receptor; Grin1/Grin2a; experiment: Agonist activity at rat NR1/NR2A receptor expressed in BHK21 cells assessed as change in intracellular calcium levels by FLIPR assay; assay type: functional, cell-based, BHK-21
[11] = target: T2, Glutamate NMDA receptor; Grin1/Grin2a (Rattus norvegicus) (UniProt P35439+Q00959); experiment: Agonist activity at rat NR1/NR2A receptor expressed in BHK21 cells assessed as increase in intracellular calcium levels by FLIPR assay; conditions: BHK-21
Glutamate NMDA receptor [12] = experiment: Displacement of [3H]CPP from NMDA receptor in Sprague-Dawley rat brain membranes; assay type: cell membranes, Membrane
[13] = target: T2, Glutamate NMDA receptor; Grin1/Grin2a (Rattus norvegicus); experiment: Agonist activity at rat NR1/NR2A receptor expressed in BHK21 cells assessed as change in intracellular calcium levels by FLIPR assay relative to (S)-Glu; assay type: functional, cell-based; conditions: BHK-21

Glutamate receptor ionotropic, kainate 2, sequence (P42260 whole entry): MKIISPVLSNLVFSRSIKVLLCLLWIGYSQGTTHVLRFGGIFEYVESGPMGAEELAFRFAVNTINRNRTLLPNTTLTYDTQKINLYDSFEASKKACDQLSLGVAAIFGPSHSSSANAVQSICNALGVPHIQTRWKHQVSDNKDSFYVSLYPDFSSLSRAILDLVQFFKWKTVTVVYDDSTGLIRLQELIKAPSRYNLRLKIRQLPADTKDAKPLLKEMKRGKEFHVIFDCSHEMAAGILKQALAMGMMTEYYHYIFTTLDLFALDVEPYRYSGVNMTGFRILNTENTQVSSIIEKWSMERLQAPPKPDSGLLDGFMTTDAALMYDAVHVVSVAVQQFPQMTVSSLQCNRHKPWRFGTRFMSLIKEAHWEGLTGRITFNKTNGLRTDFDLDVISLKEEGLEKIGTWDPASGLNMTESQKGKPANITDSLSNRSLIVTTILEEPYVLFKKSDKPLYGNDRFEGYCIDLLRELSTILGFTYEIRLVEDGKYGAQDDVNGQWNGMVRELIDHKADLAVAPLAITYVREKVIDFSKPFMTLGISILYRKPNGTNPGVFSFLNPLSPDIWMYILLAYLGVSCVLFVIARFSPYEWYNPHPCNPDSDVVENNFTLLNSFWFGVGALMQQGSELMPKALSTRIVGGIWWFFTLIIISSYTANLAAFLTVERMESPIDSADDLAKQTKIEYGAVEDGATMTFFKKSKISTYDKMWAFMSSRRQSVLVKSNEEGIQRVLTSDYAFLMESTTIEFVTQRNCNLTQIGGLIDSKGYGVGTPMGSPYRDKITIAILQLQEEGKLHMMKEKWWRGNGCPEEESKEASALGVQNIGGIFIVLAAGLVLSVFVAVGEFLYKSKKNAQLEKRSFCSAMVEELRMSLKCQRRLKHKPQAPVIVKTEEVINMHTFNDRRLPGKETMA
Glutamate receptor ionotropic, kainate 1, sequence (P22756 whole entry): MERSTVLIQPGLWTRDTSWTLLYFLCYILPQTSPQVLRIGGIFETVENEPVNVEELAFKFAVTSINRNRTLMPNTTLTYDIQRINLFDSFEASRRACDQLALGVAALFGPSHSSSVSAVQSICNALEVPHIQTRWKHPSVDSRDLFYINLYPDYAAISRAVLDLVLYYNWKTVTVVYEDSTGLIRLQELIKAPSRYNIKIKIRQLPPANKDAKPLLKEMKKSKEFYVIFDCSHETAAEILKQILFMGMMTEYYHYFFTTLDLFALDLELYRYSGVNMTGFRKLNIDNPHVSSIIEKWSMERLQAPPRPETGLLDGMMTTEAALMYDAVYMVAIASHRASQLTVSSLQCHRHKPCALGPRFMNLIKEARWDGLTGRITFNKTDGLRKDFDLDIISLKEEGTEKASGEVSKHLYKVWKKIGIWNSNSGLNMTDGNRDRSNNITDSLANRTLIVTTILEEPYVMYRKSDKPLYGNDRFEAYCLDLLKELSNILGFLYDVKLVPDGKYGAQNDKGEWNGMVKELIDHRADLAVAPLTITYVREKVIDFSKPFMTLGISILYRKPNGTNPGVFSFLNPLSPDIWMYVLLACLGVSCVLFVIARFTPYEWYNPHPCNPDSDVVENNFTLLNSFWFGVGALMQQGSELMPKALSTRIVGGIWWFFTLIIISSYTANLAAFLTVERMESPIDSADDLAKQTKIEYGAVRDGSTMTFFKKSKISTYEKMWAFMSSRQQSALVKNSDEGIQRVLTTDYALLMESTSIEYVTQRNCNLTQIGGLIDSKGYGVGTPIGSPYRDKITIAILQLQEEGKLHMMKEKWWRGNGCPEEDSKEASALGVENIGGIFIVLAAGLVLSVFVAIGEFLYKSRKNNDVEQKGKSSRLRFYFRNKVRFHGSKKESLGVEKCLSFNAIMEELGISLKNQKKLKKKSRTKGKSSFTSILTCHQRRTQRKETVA
Glutamate receptor 2 (Homo sapiens, UniProt P42262), sequence (P42262 whole entry): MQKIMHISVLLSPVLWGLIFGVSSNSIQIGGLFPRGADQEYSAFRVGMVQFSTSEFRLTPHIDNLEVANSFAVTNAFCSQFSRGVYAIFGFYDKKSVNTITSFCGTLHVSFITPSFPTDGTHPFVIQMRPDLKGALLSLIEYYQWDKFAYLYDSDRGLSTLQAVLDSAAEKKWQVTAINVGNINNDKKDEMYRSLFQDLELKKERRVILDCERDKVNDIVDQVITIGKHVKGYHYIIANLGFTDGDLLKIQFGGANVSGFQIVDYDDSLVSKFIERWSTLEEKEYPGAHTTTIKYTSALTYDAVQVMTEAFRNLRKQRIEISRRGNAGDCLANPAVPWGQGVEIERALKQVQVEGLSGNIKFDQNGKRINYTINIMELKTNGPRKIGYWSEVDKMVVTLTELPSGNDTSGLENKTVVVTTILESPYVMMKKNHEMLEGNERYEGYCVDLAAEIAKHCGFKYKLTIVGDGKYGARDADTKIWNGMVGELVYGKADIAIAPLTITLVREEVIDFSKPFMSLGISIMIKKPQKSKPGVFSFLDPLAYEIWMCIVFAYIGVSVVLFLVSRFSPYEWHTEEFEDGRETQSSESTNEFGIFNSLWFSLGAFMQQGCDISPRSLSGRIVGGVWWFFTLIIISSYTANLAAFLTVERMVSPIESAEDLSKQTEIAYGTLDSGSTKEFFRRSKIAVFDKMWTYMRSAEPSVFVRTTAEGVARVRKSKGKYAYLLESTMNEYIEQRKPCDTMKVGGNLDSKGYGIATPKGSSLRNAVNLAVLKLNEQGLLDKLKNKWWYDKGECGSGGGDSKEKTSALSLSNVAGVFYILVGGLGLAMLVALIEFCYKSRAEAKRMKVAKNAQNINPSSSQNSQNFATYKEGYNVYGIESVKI
Glutamate receptor 2 (Rattus norvegicus, UniProt P19491), sequence (P19491 whole entry): as the sequence (P42262 whole entry) above, with M191T, T291A, R764G, A852P counted along it
Glutamate receptor ionotropic, kainate 3, sequence (P42264 whole entry): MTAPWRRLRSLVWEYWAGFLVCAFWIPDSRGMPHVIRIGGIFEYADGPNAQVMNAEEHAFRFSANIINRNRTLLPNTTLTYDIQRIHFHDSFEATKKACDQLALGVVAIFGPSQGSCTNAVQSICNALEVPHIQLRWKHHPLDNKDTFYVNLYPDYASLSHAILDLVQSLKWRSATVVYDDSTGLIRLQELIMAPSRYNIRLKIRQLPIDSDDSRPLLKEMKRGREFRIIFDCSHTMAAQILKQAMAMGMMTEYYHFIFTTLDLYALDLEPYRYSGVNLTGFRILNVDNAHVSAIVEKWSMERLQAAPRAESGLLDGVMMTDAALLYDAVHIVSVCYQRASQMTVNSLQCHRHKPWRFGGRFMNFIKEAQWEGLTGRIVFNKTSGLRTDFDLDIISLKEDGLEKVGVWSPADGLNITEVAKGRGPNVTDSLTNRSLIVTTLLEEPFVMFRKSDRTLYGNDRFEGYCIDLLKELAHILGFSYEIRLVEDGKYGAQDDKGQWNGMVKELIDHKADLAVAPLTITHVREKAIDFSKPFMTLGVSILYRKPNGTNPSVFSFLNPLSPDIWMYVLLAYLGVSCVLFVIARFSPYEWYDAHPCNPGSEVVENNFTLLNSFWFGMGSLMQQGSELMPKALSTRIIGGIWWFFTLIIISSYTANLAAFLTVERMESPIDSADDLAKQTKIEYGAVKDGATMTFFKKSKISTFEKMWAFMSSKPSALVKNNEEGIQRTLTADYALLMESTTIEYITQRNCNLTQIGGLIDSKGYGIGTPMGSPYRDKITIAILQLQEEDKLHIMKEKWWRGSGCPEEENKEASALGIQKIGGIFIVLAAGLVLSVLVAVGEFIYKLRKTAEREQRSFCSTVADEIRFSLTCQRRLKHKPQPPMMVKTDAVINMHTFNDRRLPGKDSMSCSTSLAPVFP

| IC50 [1] [µM] | pIC50 [1] | Ki (Glutamate NMDA receptor [2]) [µM] | Structure (SMILES) | other results |
| --- | --- | --- | --- | --- |
| 42 | 4.37 | 22 | NC(CCCc1nonc1O)C(=O)O (stereo in doubt; (+)-18) [2-AMINO-5-(4-HYDROXY-1,2,5-OXADIAZOL-3-YL)PENTANOIC ACID (STRUCTURAL MIX)] | Ki (Glutamate receptor 2 [3]): 20 µM; Ki [4]: > 1000 µM; Ki [5]: > 1000 µM; EC50 (Glutamate receptor 2 [6]): 491 µM; EC50 [7]: Not Active; IC50 [8]: 245 µM; Ki [9]: 67 µM |
| 42 | 4.37 | 73 | NC(CCc1nonc1O)C(=O)O (stereo in doubt; (+)-15) [2-AMINO-4-(4-HYDROXY-1,2,5-OXADIAZOL-3-YL)BUTANOIC ACID (STRUCTURAL MIX)] | Ki (Glutamate receptor 2 [3]): 40 µM; Ki [4]: > 1000 µM; Ki [5]: 41 µM; EC50 (Glutamate receptor 2 [6]): 489 µM; EC50 [7]: Not Active; IC50 [8]: 1020 µM; Ki [9]: 53 µM |
| > 100 | – | 3.4 | NC(CCc1nonc1O)C(=O)O (single isomer, unassigned; (-)) [2-AMINO-4-(4-HYDROXY-1,2,5-OXADIAZOL-3-YL)BUTANOIC ACID (STRUCTURAL MIX)] | IC50 [8]: 49 µM |
| 61 | 4.22 | 2.9 | NC(CCCc1nonc1O)C(=O)O (racemic) [2-AMINO-5-(4-HYDROXY-1,2,5-OXADIAZOL-3-YL)PENTANOIC ACID (STRUCTURAL MIX)] | – |
| > 100 | – | 6.2 | CN[C@H](CC(=O)O)C(=O)O [N-METHYL-D-ASPARTIC ACID (NMDA)] | – |
| – | – | – | NC(CCc1nonc1O)C(=O)O (racemic) | Activity [11]: inactive |
| > 100 | – | 1.8 | NC(CCCc1nonc1O)C(=O)O (stereo in doubt; (-)-18) [2-AMINO-5-(4-HYDROXY-1,2,5-OXADIAZOL-3-YL)PENTANOIC ACID (STRUCTURAL MIX)] | IC50 [8]: 28 µM |
| > 100 | – | 6.3 | NC(C(=O)O)c1nonc1O (racemic) | – |
| – | – | – | NC(Cc1nonc1O)C(=O)O (single isomer, unassigned; (+)) | Imax [13]: 0.76 |
| – | – | – | NC(CCCc1nonc1O)C(=O)O (racemic) | Activity [11]: inactive |
| 77 | 4.12 | 4.9 | NC(CCc1nonc1O)C(=O)O (racemic) [2-AMINO-4-(4-HYDROXY-1,2,5-OXADIAZOL-3-YL)BUTANOIC ACID (STRUCTURAL MIX)] | – |

| Structure (SMILES) | IC50 [1] [µM] | pIC50 [1] | Ki (Glutamate NMDA receptor [2]) [µM] | other results |
| --- | --- | --- | --- | --- |
| NC(Cc1nonc1O)C(=O)O (racemic) [2-AMINO-3-(4-HYDROXY-1,2,5-OXADIAZOL-3-YL)PROPIONIC ACID (STRUCTURAL MIX)] | 0.17 | 6.76 | 16 | – |
| NC(Cc1nonc1O)C(=O)O (stereo in doubt; (-)-10) [2-AMINO-3-(4-HYDROXY-1,2,5-OXADIAZOL-3-YL)PROPIONIC ACID (STRUCTURAL MIX)] | 0.76 | – | > 100 | Ki (Glutamate receptor 2 [3]): 0.25 µM; Ki ([4]; sf9): > 100 µM; Ki ([5]; sf9): > 100 µM; EC50 (Glutamate receptor 2 [6]): 43 µM; EC50 [10]: > 500 µM; Ki [9]: 77 µM |
| Cc1onc(O)c1CC(N)C(=O)O (racemic) [(R,S)-AMPA] | 0.039 | – | – | – |
| NC(Cc1nsnc1O)C(=O)O (racemic) | 0.12 | – | – | Ki (Glutamate NMDA receptor [12]): > 100 µM |
| C=C(C)[C@H]1CN[C@H](C(=O)O)[C@H]1CC(=O)O [KAINIC ACID] | 4 | – | > 100 | – |
| NC(Cc1nonc1O)C(=O)O (single isomer, unassigned; (+)) [2-AMINO-3-(4-HYDROXY-1,2,5-OXADIAZOL-3-YL)PROPIONIC ACID (STRUCTURAL MIX)] | 0.11 | 6.95 | 13 | Ki (Glutamate receptor 2 [3]): 0.043 µM; Ki [4]: > 100 µM; Ki [5]: > 100 µM; EC50 (Glutamate receptor 2 [6]): 9.4 µM; EC50 [10]: 47 µM; Ki [9]: 8.1 µM |
